PMC6302903, “Protein and Chemical Determinants of BL-1249 Action and Selectivity for K2P Channels” (ACS Chemical Neuroscience, 2018)

Key:
Assay type in all cases: cell-based
Conditions in all cases: concentrations up to the solubility limit (∼80 μM)
[1] = target: T1, K2P1.1(TWIK-1) (Mus musculus, UniProt O08581); experiment: TEVC of K2P1.1(TWIK-1) in Xenopus oocytes
T1 construct: expressed in transfected cells; host or cells: Xenopus laevis oocytes injected with mRNA made from pGEMHE/pMO
Experimental: (§1) BL-1249 activates K2P2.1(TREK-1)[18],[40] and K2P10.1(TREK-2),[7] but its effects on other K2P channels have not been characterized. […] In order to test if the original 10 μM assay had missed BL-1249 effects in other K2P channels, we tested concentrations of BL-1249 up to the solubility limit (∼80 μM) against the other K2P subfamily representatives. […]
(§2) Xenopus laevis oocytes were harvested in accordance with UCSF IACUC protocol AN129690 and digested in calcium-free ND-96 (96 mM NaCl, 2 mM KCl, 3.8 mM MgCl2) immediately following harvest, as previously described.[6],[10] […] Defolliculated stage V–VI oocytes were injected with 0.2–6.0 ng of mRNA in 50 nL, and currents were recorded 24–48 h after injection. mRNA was synthesized from plasmid DNA using mMessage mMachine Kit (T7 promoter, Ambion, Life Technologies) and purified using RNEasy Kit (Qiagen). […] Once stabilized basal currents were recorded, compounds were perfused at various concentrations in standard ND96 and currents were allowed to increase to stabilization before recording final current. Fold activation upon compound application is expressed as I/I0 (0 mV), derived from the current at 0 mV in the presence of compound divided by the basal current at 0 mV in standard ND96 without compound. Data were analyzed and plotted using Graphpad Prism Version 5 (GraphPad Software, San Diego California USA, www.graphpad.com). […]

[2] = target: T2, K2P5.1(TASK-2) (Mus musculus, UniProt F6V9U5); experiment: TEVC of K2P5.1(TASK-2) in Xenopus oocytes
T2 construct: expressed in transfected cells; host or cells: Xenopus laevis oocytes (mRNA injection, pGEMHE/pMO)
Experimental: as §1, §2

[3] = target: T3, K2P18.1(TRESK) (Mus musculus, UniProt Q6VV64); experiment: TEVC of K2P18.1(TRESK) in Xenopus oocytes
T3 construct: expressed in transfected cells; host or cells: Xenopus laevis oocytes (mRNA injection, pGEMHE/pMO)
Experimental: as §1, §2

[4] = target: T4, K2P3.1(TASK-1) (Mus musculus, UniProt O35111); experiment: TEVC of K2P3.1(TASK-1) in Xenopus oocytes
T4 construct: expressed in transfected cells; host or cells: Xenopus laevis oocytes injected with mRNA made from pGEMHE/pMO
Experimental: as §1, §2

T3 sequence (Q6VV64 whole entry): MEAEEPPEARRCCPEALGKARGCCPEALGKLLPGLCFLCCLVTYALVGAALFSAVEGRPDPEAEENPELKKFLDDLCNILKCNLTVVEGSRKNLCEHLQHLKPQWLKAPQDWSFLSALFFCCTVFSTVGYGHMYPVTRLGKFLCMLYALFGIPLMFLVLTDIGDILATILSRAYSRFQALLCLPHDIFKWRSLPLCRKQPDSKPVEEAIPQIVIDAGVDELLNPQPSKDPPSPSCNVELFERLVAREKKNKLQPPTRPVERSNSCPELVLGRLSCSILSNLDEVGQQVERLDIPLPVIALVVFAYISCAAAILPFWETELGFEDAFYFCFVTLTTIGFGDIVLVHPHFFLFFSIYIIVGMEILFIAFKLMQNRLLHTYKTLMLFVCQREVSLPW
T1 sequence (O08581 whole entry): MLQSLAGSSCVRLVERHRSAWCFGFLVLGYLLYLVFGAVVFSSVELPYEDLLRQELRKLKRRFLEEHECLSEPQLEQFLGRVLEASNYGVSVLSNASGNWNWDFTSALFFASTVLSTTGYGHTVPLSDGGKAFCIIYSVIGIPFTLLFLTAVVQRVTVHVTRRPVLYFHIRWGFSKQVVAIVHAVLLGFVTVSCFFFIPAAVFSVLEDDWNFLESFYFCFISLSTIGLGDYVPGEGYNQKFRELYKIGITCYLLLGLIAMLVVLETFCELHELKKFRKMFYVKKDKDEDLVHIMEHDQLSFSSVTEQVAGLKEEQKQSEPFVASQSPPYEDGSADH
T4 sequence (O35111 whole entry): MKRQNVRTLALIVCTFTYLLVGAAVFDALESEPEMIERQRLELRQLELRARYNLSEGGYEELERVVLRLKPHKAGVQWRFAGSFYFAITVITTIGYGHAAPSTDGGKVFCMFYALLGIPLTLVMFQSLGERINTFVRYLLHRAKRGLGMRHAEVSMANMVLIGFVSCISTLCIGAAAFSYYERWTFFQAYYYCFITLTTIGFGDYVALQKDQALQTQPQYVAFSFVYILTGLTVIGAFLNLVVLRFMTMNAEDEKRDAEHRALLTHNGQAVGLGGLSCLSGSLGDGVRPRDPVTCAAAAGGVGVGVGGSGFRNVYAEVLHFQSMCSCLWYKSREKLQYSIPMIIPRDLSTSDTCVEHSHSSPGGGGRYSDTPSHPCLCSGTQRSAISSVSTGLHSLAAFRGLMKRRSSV
T2 sequence (F6V9U5 1-502): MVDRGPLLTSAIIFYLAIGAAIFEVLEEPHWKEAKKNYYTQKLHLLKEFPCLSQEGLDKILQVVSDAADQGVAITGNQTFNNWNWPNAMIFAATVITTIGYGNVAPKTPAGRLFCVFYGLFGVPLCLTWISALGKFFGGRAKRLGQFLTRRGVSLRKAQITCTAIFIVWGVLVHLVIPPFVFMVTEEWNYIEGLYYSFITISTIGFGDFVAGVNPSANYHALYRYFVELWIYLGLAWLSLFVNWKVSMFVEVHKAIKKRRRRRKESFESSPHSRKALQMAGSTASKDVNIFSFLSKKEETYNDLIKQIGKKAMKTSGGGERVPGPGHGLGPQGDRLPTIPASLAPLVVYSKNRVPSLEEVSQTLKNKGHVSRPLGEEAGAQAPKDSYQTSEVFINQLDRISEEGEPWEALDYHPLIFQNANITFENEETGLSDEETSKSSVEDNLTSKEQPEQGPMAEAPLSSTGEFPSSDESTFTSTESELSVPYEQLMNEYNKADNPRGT

activation of K2P1.1(TWIK-1) [1]: failed to find evidence for activation
activation of K2P5.1(TASK-2) [2]: failed to find evidence for activation
activation of K2P18.1(TRESK) [3]: failed to find evidence for activation
activation of K2P3.1(TASK-1) [4]: failed to find evidence for activation
Structure (SMILES): c1ccc(-c2nnn[nH]2)c(Nc2cccc3c2CCCC3)c1 [BL-1249, (5,6,7,8-tetrahydro-naphthalen-1-yl)-[2-(1H-tetrazol-5-yl)-phenyl]-amine]
